Experimental data from patent US12576033B2, “Spray-dried formulation of a pyridazinone TRPC5 inhibitor” (GFB (ABC), LLC, priority 2019, dated 2026).

What was measured:
Assay type in all cases: physicochemical
[1] = Visual solubility in common spray drying solvents
Method: Organic solubility of Compound 1 was determined visually in common spray drying solvents (Table 10) and Compound 1 lot AC5313-058P1 was utilized. […] When removed from heat API crashes out after 5 minutes. Solution (% w/w) was then prepared at 2.0% Compound 1 and heated to 40° C. where solids dissolved immediately. The 2.0% solution was then removed from heat where API appeared to crash out after ˜2 hours.

[2] = Two stage gastric transfer non-sink dissolution test (0.1N HCl/FaSSIF)
Method: In-vitro drug dissolution performance for each SDI is evaluated by Patheon's two stage ‘gastric transfer’ non-sink dissolution test (Table 8), which simulates pH and bile salt concentrations for both gastric and intestinal exposure in a simple to perform assay. Pre-weighed SDI powder is briefly suspended in media (e.g. by 10 sec vortex mixing with 4.0 mL media) and transferred to a pre-heated (37° C.) volume of 50 mL of 0.1N HCl(aq) (simulated gastric fluid or SGF, pH˜1.0, without pepsin or bile salts), in a USP Type 2 mini-vessel (100 mL total vessel volume) while stirring (paddles) at 100 rpm. After 30 minutes of gastric pH exposure, an equal volume of PBS buffered, 2× concentrated fasted-state simulated intestinal fluid (FaSSIF) is added to the SGF, resulting in a final pH of 6.8 in FaSSIF (100 mM PBS containing 2.24 mg/mL SIF powder (original) (Biorelevant Inc.) in a total volume of 100 mL. Aliquiots (1.0 mL) of dissolution media are taken at selected time-points before and after the simulated gastric transfer, spun-down (13000 rpm) to pellet out undissolved solids, and the supernatant sampled and further diluted in an appropriate diluent to determine API total drug concentration (e.g. free and colloidal/polymer-bound drug in solution) utilizing a suitable HPLC method. Additional centrifugation and filtration was performed using 10K molecular weight cutoff filters to remove polymer bound aggregates and colloids. The resulting filtrate of free drug consists of drug in solution and micelles. The volume of FaSSIF added is adjusted to account for the sampling volume removed prior to gastric transfer (typically 4×1.0 mL). Initial Compound 1 API measurements and SDI dissolution samples were determined utilizing HPLC.
The dissolution performance of the SDI material and crystalline Compound 1 was tested in Patheon's non-sink dissolution test (FIG. 6 and Table 15). The dissolution test is used to measure the supersaturation of drug above the bulk crystalline Compound 1 solubility in biorelevant intestinal media (FaSSIF) after 30 minutes exposure to a low-pH environment. […]

[3] = MDSC thermal analysis (Tg)
Method: MDSC was performed using a TA Instruments Discovery DSC2500 differential scanning calorimeter equipped with a TA instruments Refrigerated Cooling System 90. MDSC was used to measure thermodynamic events and characteristics of Compound 1 API and subsequent SDIs. Events observed include the glass transition temperature (Tg), cold crystallization (Tc, defined as a crystallization event at a temperature lower than the melt temperature) and melting temperature (Tm). SDI samples were placed in non-hermetic aluminum pans and heated at a constant rate of 2.0° C./min over a 0-200° C. temperature range. The system was purged by nitrogen flow at 50 mL/min to ensure inert atmosphere through the course of measurement. […] The resulting amorphous API was analyzed by modulated DSC up to 265° C. […]
Thermal properties including melting temperature (Tm), glass transition temperature (Tg) and crystallization temperature (Tc) of Compound 1 crystalline Form H (anhydrous/solvate free) were measured by MDSC. […] The Tg was measured via a melt-quench technique, heating Compound 1 past its melting temperature and rapidly cooled in liquid nitrogen to trap the molten material in an amorphous state. The resulting sample was analyzed by MDSC and a Tg of 130° C. was observed (FIGS. 1A-B/Table 9) with no observed crystallization peaks or clear melting events in the subsequent amorphous ramp up to 275° C. […]

[4] = 60:40 DCM:Methanol, clear solution when heated to 40° C.
[5] = 80:20 DCM:Methanol, clear solution when heated to 40° C.
[6] = 90:10 DCM:Methanol, clear solution when heated to 40° C.

O=c1[nH]ncc(N2CCc3c(ncnc3Oc3ccc(F)cc3C(F)(F)F)C2)c1Cl [Compound 1, 4-chloro-5-(4-(4-fluoro-2-(trifluoromethyl)phenoxy)-5,8-dihydropyrido[3,4-d]pyrimidin-7(6H)-yl)pyridazin-3(2H)-one]
Compound 1 Visual Solubility ([1]; 50:50 DCM:Methanol): >1.0 wt .% | Observation (visual solubility) ([1]; 50:50 DCM:Methanol): Insoluble | Compound 1 Visual Solubility [1, 4]: 2.0-3.0 wt .% | Observation (visual solubility) [1, 4]: Soluble^1 | Compound 1 Visual Solubility [1, 5]: 1.0-1.5 wt .% | Observation (visual solubility) [1, 5]: Soluble^1 | Compound 1 Visual Solubility [1, 6]: 1.0-1.5 wt .% | Observation (visual solubility) [1, 6]: Soluble^1 | Compound 1 Visual Solubility ([1]; 95:5 Acetone:Water): >1.0 wt .% | Observation (visual solubility) ([1]; 95:5 Acetone:Water): Insoluble | Compound 1 Visual Solubility ([1]; Acetone): >1.0 wt .% | Observation (visual solubility) ([1]; Acetone): Insoluble | Compound 1 Visual Solubility ([1]; Methanol): >1.0 wt .% | Observation (visual solubility) ([1]; Methanol): Insoluble | Compound 1 Visual Solubility ([1]; Methlyene Chloride (DCM)): >1.0 wt .% | Observation (visual solubility) ([1]; Methlyene Chloride (DCM)): Insoluble | Compound 1 Visual Solubility ([1]; Methyl Ethyl Ketone (MEK)): >1.0 wt .% | Observation (visual solubility) ([1]; Methyl Ethyl Ketone (MEK)): Insoluble | Compound 1 Visual Solubility ([1]; Tetrahydrofuran (THF)): >1.0 wt .% | Observation (visual solubility) ([1]; Tetrahydrofuran (THF)): Insoluble | maximum active loading in solution ([1]; heated (40° C.) 60:40 DCM:Methanol, % w/w): 2.0% | Total Drug AUC35-210 FaSSIF ([2]; area under the curve after transfer to FaSSIF from 35 to 210 minutes): 600 min * μgA/mL | Total Drug C210 ([2]; drug concentration at 180 minutes after transfer to FaSSIF): 3.5 μgA/mL | Increase in AUC over API AUC ([2]; non-sink dissolution, FaSSIF): 0.4 | Tg ([3]; amorphous API by melt-quench, MDSC): 130 °C | Tm/Tg ratio ([3]; indicating moderate physical stability): 1.32
